# Measured values from PubChem BioAssay (NCI).
#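 Following 48 hours of exposure in 96-well plates, responses at five concentrations were used to interpolate endpoints linearly. Definition used: TGI = concentration required for complete inhibition of growth.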
# Key:
# Assay in all cases: NCI tumour cell line growth inhibition, 48 h
# 786-0 renal = system: 786-0 renal
# A498 renal = system: A498 renal
# A549 NSCLC = system: A549 NSCLC
# ACHN renal = system: ACHN renal
# BT-549 breast = system: BT-549 breast
# CAKI-1 renal = system: CAKI-1 renal
# CCRF-CEM leukemia = system: CCRF-CEM leukemia
# COLO 205 colon = system: COLO 205 colon
# DU-145 prostate = system: DU-145 prostate
# EKVX NSCLC = system: EKVX NSCLC
# HCC-2998 colon = system: HCC-2998 colon
# HCT-116 colon = system: HCT-116 colon
# HCT-15 colon = system: HCT-15 colon
# HL-60(TB) leukemia = system: HL-60(TB) leukemia
# HOP-62 NSCLC = system: HOP-62 NSCLC
# HOP-92 NSCLC = system: HOP-92 NSCLC
# HS 578T breast = system: HS 578T breast
# HT29 colon = system: HT29 colon
# IGROV1 ovarian = system: IGROV1 ovarian
# K-562 leukemia = system: K-562 leukemia
# KM12 colon = system: KM12 colon
# LOX IMVI melanoma = system: LOX IMVI melanoma
# M14 melanoma = system: M14 melanoma
# MALME-3M melanoma = system: MALME-3M melanoma
# MCF7 breast = system: MCF7 breast
# MDA-MB-231 breast = system: MDA-MB-231 breast
# MDA-MB-435 = system: MDA-MB-435
# MDA-N = system: MDA-N
# MOLT-4 leukemia = system: MOLT-4 leukemia
# NCI-H226 lung = system: NCI-H226 lung
# NCI-H23 lung = system: NCI-H23 lung
# NCI-H460 lung = system: NCI-H460 lung
# NCI-H522 lung = system: NCI-H522 lung
# NCI/ADR-RES ovarian = system: NCI/ADR-RES ovarian
# OVCAR-3 ovarian = system: OVCAR-3 ovarian
# OVCAR-4 ovarian = system: OVCAR-4 ovarian
# OVCAR-5 ovarian = system: OVCAR-5 ovarian
# OVCAR-8 ovarian = system: OVCAR-8 ovarian
# PC-3 prostate = system: PC-3 prostate
# RPMI-8226 leukemia = system: RPMI-8226 leukemia
# RXF 393 renal = system: RXF 393 renal
# SF-268 CNS = system: SF-268 CNS
# SF-295 CNS = system: SF-295 CNS
# SF-539 CNS = system: SF-539 CNS
# SK-MEL-2 melanoma = system: SK-MEL-2 melanoma
# SK-MEL-28 melanoma = system: SK-MEL-28 melanoma
# SK-MEL-5 melanoma = system: SK-MEL-5 melanoma
# SK-OV-3 ovarian = system: SK-OV-3 ovarian
# SN12C renal = system: SN12C renal
# SNB-19 CNS = system: SNB-19 CNS
# SNB-75 CNS = system: SNB-75 CNS
# SR leukemia = system: SR leukemia
# SW-620 colon = system: SW-620 colon
# T-47D breast = system: T-47D breast
# TK-10 renal = system: TK-10 renal
# U251 CNS = system: U251 CNS
# UACC-257 melanoma = system: UACC-257 melanoma
# UACC-62 melanoma = system: UACC-62 melanoma
# UO-31 renal = system: UO-31 renal
structure (smiles),measurement,setting,value
CN(C)c1ccc(/C=C/C=C(/C#N)c2ccccc2)cc1,TGI,786-0 renal,> 62.7 µM
same,TGI,A498 renal,98.5 µM
same,TGI,A549 NSCLC,> 100 µM
same,TGI,ACHN renal,> 100 µM
same,TGI,BT-549 breast,> 100 µM
same,TGI,CAKI-1 renal,> 100 µM
same,TGI,CCRF-CEM leukemia,> 77.1 µM
same,TGI,COLO 205 colon,> 92.1 µM
same,TGI,DU-145 prostate,> 100 µM
same,TGI,EKVX NSCLC,> 100 µM
same,TGI,HCC-2998 colon,> 85.3 µM
same,TGI,HCT-116 colon,> 77 µM
same,TGI,HCT-15 colon,> 100 µM
same,TGI,HL-60(TB) leukemia,33 µM
same,TGI,HOP-62 NSCLC,> 97 µM
same,TGI,HOP-92 NSCLC,> 100 µM
same,TGI,HS 578T breast,69.2 µM
same,TGI,HT29 colon,40.6 µM
same,TGI,IGROV1 ovarian,> 100 µM
same,TGI,K-562 leukemia,> 38 µM
same,TGI,KM12 colon,34.1 µM
same,TGI,LOX IMVI melanoma,> 74.3 µM
same,TGI,M14 melanoma,> 85.1 µM
same,TGI,MALME-3M melanoma,> 100 µM
same,TGI,MCF7 breast,> 87.9 µM
same,TGI,MDA-MB-231 breast,> 93.8 µM
same,TGI,MDA-MB-435,6.19 µM
same,TGI,MDA-N,5.28 µM
same,TGI,MOLT-4 leukemia,> 55.7 µM
same,TGI,NCI-H226 lung,> 100 µM
same,TGI,NCI-H23 lung,97.6 µM
same,TGI,NCI-H460 lung,83.7 µM
same,TGI,NCI-H522 lung,> 65.7 µM
same,TGI,NCI/ADR-RES ovarian,35.3 µM
same,TGI,OVCAR-3 ovarian,28.5 µM
same,TGI,OVCAR-4 ovarian,> 65.8 µM
same,TGI,OVCAR-5 ovarian,> 100 µM
same,TGI,OVCAR-8 ovarian,> 91.9 µM
same,TGI,PC-3 prostate,> 100 µM
same,TGI,RPMI-8226 leukemia,> 95.3 µM
same,TGI,RXF 393 renal,> 79.5 µM
same,TGI,SF-268 CNS,> 100 µM
same,TGI,SF-295 CNS,> 100 µM
same,TGI,SF-539 CNS,64.7 µM
same,TGI,SK-MEL-2 melanoma,> 93 µM
same,TGI,SK-MEL-28 melanoma,> 100 µM
same,TGI,SK-MEL-5 melanoma,> 100 µM
same,TGI,SK-OV-3 ovarian,> 74.9 µM
same,TGI,SN12C renal,> 100 µM
same,TGI,SNB-19 CNS,> 88.1 µM
same,TGI,SNB-75 CNS,76 µM
same,TGI,SR leukemia,> 39.7 µM
same,TGI,SW-620 colon,72.5 µM
same,TGI,T-47D breast,> 100 µM
same,TGI,TK-10 renal,> 100 µM
same,TGI,U251 CNS,55.5 µM
same,TGI,UACC-257 melanoma,> 100 µM
same,TGI,UACC-62 melanoma,> 100 µM
same,TGI,UO-31 renal,> 100 µM
O=[N+]([O-])c1ccc2nc(/C=C(\O)c3ccc(F)cc3)c(/C=C(\O)c3ccc(F)cc3)nc2c1,TGI,786-0 renal,39.7 µM
same,TGI,A498 renal,52.3 µM
same,TGI,A549 NSCLC,> 100 µM
same,TGI,ACHN renal,36.6 µM
same,TGI,BT-549 breast,91.5 µM
same,TGI,CAKI-1 renal,> 100 µM
same,TGI,CCRF-CEM leukemia,26.4 µM
same,TGI,COLO 205 colon,> 100 µM
same,TGI,DU-145 prostate,> 100 µM
same,TGI,EKVX NSCLC,> 100 µM
same,TGI,HCC-2998 colon,> 100 µM
same,TGI,HCT-116 colon,> 100 µM
same,TGI,HCT-15 colon,> 100 µM
same,TGI,HL-60(TB) leukemia,55.7 µM
same,TGI,HOP-62 NSCLC,31.7 µM
same,TGI,HOP-92 NSCLC,> 100 µM
same,TGI,HS 578T breast,> 100 µM
same,TGI,HT29 colon,> 100 µM
same,TGI,IGROV1 ovarian,> 100 µM
same,TGI,K-562 leukemia,> 100 µM
same,TGI,KM12 colon,> 100 µM
same,TGI,LOX IMVI melanoma,> 100 µM
same,TGI,M14 melanoma,> 100 µM
same,TGI,MALME-3M melanoma,> 100 µM
same,TGI,MCF7 breast,> 100 µM
same,TGI,MDA-MB-231 breast,69.6 µM
same,TGI,MDA-MB-435,> 100 µM
same,TGI,MDA-N,> 100 µM
same,TGI,MOLT-4 leukemia,43.5 µM
same,TGI,NCI-H226 lung,89 µM
same,TGI,NCI-H23 lung,77.7 µM
same,TGI,NCI-H460 lung,> 100 µM
same,TGI,NCI-H522 lung,> 100 µM
same,TGI,NCI/ADR-RES ovarian,> 100 µM
same,TGI,OVCAR-3 ovarian,> 100 µM
same,TGI,OVCAR-4 ovarian,> 100 µM
same,TGI,OVCAR-5 ovarian,> 100 µM
same,TGI,OVCAR-8 ovarian,> 100 µM
same,TGI,PC-3 prostate,> 100 µM
same,TGI,RPMI-8226 leukemia,> 100 µM
same,TGI,RXF 393 renal,40.7 µM
same,TGI,SF-268 CNS,> 100 µM
same,TGI,SF-295 CNS,57.6 µM
same,TGI,SF-539 CNS,56.3 µM
same,TGI,SK-MEL-2 melanoma,45.2 µM
same,TGI,SK-MEL-28 melanoma,> 100 µM
same,TGI,SK-MEL-5 melanoma,> 100 µM
same,TGI,SK-OV-3 ovarian,47.5 µM
same,TGI,SN12C renal,> 100 µM
same,TGI,SNB-19 CNS,> 100 µM
same,TGI,SNB-75 CNS,37.5 µM
same,TGI,SR leukemia,40.9 µM
same,TGI,SW-620 colon,> 100 µM
same,TGI,T-47D breast,> 100 µM
same,TGI,TK-10 renal,34.2 µM
same,TGI,U251 CNS,70.5 µM
same,TGI,UACC-257 melanoma,> 100 µM
same,TGI,UACC-62 melanoma,> 100 µM
same,TGI,UO-31 renal,> 100 µM
